biological target: T1, human CRTH2 (Homo sapiens, UniProt Q9Y5Y4); experiment: Human CRTH2 binding assay (3H-PGD2 binding, 293(124) cells); conditions: 3H-PGD2 binding to 293(124) cells stably expressing human CRTH2
T1 construct: Full-length human CRTH2 cDNA was generated by polymerase chain reaction (PCR); expressed in transfected cells; host or cells: 293 cells stably transfected with pHLT124 (pcDNA3.1(+)), G418-selected; named 293(124)
T1 sequence (Q9Y5Y4 1-395): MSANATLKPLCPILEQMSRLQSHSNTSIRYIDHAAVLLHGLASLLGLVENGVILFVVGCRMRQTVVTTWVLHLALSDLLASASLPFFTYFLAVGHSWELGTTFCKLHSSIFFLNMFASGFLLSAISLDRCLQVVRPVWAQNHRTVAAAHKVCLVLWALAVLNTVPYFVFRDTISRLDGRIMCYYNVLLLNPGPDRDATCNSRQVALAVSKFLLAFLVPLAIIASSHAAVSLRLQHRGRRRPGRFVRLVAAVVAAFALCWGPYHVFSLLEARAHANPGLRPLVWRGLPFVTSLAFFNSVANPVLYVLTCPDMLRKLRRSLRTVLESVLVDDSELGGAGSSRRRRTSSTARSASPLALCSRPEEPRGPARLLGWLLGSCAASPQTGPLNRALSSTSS
Description: Human CRTH2 Binding Assay
Full-length human CRTH2 cDNA was generated by polymerase chain reaction (PCR) using human genomic DNA as template and subsequently cloned into pcDNA3.1(+) (Invitrogen), generating a CRTH2 expression plasmid pHLT124. The plasmid was transfected into 293 cells, which […] CRTH2, using LipofectAMINETM reagents (Gibco/BRL). G418 ([…]) was added to the culture 48 h after transfection and cells were maintained under selection for 3 weeks to ensure that all surviving cells stably expressed CRTH2. These cells are labeled as 293(124) hereafter.
^3H-PGD2 binding assay was performed using 293(124) cells. In brief, cells were washed and suspended in RPMI containing 0.5% BSA and 20 mM HEPES. Each assay contained 25,000 cells, appropriate amount of test compound when necessary and a mixture of 1 nM ^3H-PGD2 (Amersham Pharmacia Biotech) and 30 nM of unlabeled PGD2 (Cayman Chemicals) in […] final volume. The cell mixture was incubated at room temperature for 2.5 h with shaking and the cells were separated from free ^3H-PGD2 and transferred onto a filter plate using a cell harvester. Radioactivity bound to the cells was measured on a liquid scintillation counter. Nonspecific binding was determined in the presence of […] of unlabeled PGD2.

**Q.** With `CC(=O)N(c1ccccc1)[C@H]1C[C@@H](C)N(C(=O)c2ccccc2)c2ccccc21` [Compound 3] as the compound, how does the IC50 read?
**A.** < 40 nM

**Q.** `CCCCC(=O)N(c1ccccc1)[C@H]1C[C@@H](C)N(C(=O)c2ccccc2)c2ccccc21` [Compound 4] was tested. Which IC50 did it give?
**A.** ≥ 40 nM

**Q.** Which IC50 does the source give for `CC(=O)N(c1ccc(Cl)cc1)[C@H]1C[C@@H](C)N(C(=O)c2ccc(Oc3ccccc3)cc2)c2ccccc21` [Compound 9] here?
**A.** ≥ 40 nM

**Q.** `CC(=O)N[C@H]1C[C@@H](C)N(C(=O)c2ccccc2)c2ccccc21` [Compound 12] was tested. Which IC50 did it give?
**A.** ≥ 40 nM

— patent publication US20050038070A1, “Asthma and allergic inflammation modulators” (AMGEN INC., priority 2003, published 2005)
